The text below walks through data of patent publication US11033029B2, “Pyrazole amide compound and use thereof” (Shenyang Sinochem Agrochemicals R&D Co., Ltd., priority 2013, dated 2021).

A word on the pest or weed control: it is the degree to which the test organism was suppressed or injured, in per cent.

Test [1] deals with corn rust (Puccinia sorghi Schw). As to the kind of experiment: Protective effect against corn rust on potted plants. It is filed as in vivo. Particulars: protectant activity, parallel test. The procedure:
(§1) Fungicidal activity of the compounds in the present invention against many kinds diseases were carried out. The procedure of fungicidal activity determination is as follows:
(§2) The fungicidal activity was tested in vivo manner on the potted plants. The test compounds of the present invention were dissolved in proper solvent (choosing the solvent according their dissolving ability to the compounds, the solvents could be acetone, methanol or N,N-dimethylformide, etc. The volume ratio between solvent and liquid sprayed was equal to or less than 0.05) and dilute with water contain 0.1% Tween 80 to given concentrations. Compounds of present invention was sprayed onto the leaves of seedling according to the designed concentration. Meanwhile, water was set as the blank control, three replicates were set for each treatment, the spore suspension were inoculated on the second day after treatment, then the plants were placed in an artificial climate chamber (temperature: day 25° C., night 20° C., relative humidity 95 to 100%). 24 hours later, the plants were moved to green house to cultivated. The plants which not need to control humidity was inoculated spore suspension in green house and cultivated in green house directly. The results were investigated after the plants were fully infected relative to the blank control (usually one week). The test results grading 100-0 refers to the <A Manual of Assessment Keys for Plant Diseases> which edited by American Phytopathological Society. “100” refer to no infection and “0” refer to the most serious infection
Protective effect against corn rust (Puccinia sorghi Schw):
According the test method described above, parallel test were carried out between compounds 1, 3, 7, 9, 11 and 21 of present invention and the known compounds KC1, KC2, KC3 and KC4.

Test [2] relates to cucumber downy mildew (Pseudoperonospora cubensis (Berk.et Curt.) Rostov). As to the kind of experiment: Protective effect against cucumber downy mildew on potted plants. Particulars: 400 ppm, protectant activity, parallel test. It counts as in vivo. The procedure: as §1, §2
Protective effect against cucumber downy mildew (Pseudoperonospora cubensis (Berk.et Curt.) Rostov)
According the test method described above, parallel test were carried out between compounds 2 and 11 of present invention and the known compounds KC1, KC2, KC3 and KC4 (they are the compounds 7g, 7f and 7a in Chinese Journal of Pesticide Science, 2011, 13(6): 576-580 and compound of 11 in CN1646494A, respectively).

With `CC(C)Oc1cccc(NC(=O)c2cn(C)nc2C(F)F)c1` [Compound 1], in test [1], the pest or weed control at 6.25 ppm is 100% and the pest or weed control at 25 ppm came out at 100%.

In test [1], `CCCC(C)Oc1cccc(NC(=O)c2cn(C)nc2C(F)F)c1` (stereo not drawn) [Compound 3] gave a pest or weed control at 6.25 ppm of 95% and a pest or weed control at 25 ppm of 100%.

On to `CCC(CC)Oc1cccc(NC(=O)c2cn(C)nc2C(F)F)c1C` [Compound 11], for which, in test [2], the “Control effect against cucumber downy mildew (%)” value (shortened to “Control effect … (%)”) worked out at 90%. In test [1], the pest or weed control at 6.25 ppm is 90% and the pest or weed control at 25 ppm is 100%.

In test [1], `C=C(C)Cc1c(NC(=O)c2cn(C)nc2C(F)F)cccc1OC(C)C` [Compound 21] displayed a pest or weed control at 6.25 ppm of 90% and a pest or weed control at 25 ppm of 100%.

On to `Cn1cc(C(=O)Nc2ccccc2)c(C(F)F)n1` [KC1], for which the “Control effect … (%)” value in test [2] is recorded as 0%. In test [1], this compound had a pest or weed control at 6.25 ppm of 0% and a pest or weed control at 25 ppm of 60%.

Regarding `Cc1ccccc1NC(=O)c1cn(C)nc1C(F)F` [KC2], the “Control effect … (%)” value in test [2] was found to be 0%. In test [1], the pest or weed control at 6.25 ppm stood at 0% and the pest or weed control at 25 ppm came to 0%.

On to `Cc1c(F)cccc1NC(=O)c1cn(C)nc1C(F)F` [KC3], for which the “Control effect … (%)” value in test [2] was determined as 0%. Besides, in test [1], the pest or weed control at 6.25 ppm is 20% and the pest or weed control at 25 ppm amounted to 30%.

Regarding `Cn1cc(C(=O)Nc2ccc(F)cc2-c2ccc(Cl)c(Cl)c2)c(C(F)F)n1` [KC4, bixafen], the “Control effect … (%)” value in test [2] is 0%. Further, in test [1], the pest or weed control at 6.25 ppm was 0% and the pest or weed control at 25 ppm was 50%.
